Source: US10035790B2, “RORγ modulators” (BRISTOL-MYERS SQUIBB COMPANY, priority 2012, dated 2018)

Biological target: T1, ligand binding domain of human RORγ (A262-S507) (Homo sapiens, UniProt P51449)
T1 construct: made in house; host or cells: E. coli
T1 sequence (P51449 262-507): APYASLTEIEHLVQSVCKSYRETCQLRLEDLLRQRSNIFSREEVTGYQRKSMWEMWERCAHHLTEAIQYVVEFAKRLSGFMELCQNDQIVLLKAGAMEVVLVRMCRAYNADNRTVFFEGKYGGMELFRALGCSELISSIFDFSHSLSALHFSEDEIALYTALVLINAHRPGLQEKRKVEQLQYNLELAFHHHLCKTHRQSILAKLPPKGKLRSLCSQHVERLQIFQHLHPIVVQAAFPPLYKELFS
Experiment: General RORγ SPA binding assay (competition with [3H]25-hydroxycholesterol)
Conditions: IC50, RORγ SPA binding assay, inhibition of [3H]25-hydroxycholesterol binding
Method in brief: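 Scintillation counts from copper His-tag SPA beads (4 mg/mL, 30 min) gave percent inhibition of radioligand binding, from which IC50 values are derived. The E. coli-expressed His-tagged domain (50 nM) is first exposed to compound for 15 min at room temperature in PBS containing 0.5% fatty acid free BSA.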

Compound | IC50 [nM]
Nc1ncc(C(=O)COc2ccnc(C(F)(F)F)n2)c(C2CCN(C(=O)Oc3c(F)cccc3F)CC2)n1 [Compound M3, 2,6-Difluorophenyl 4-[2-amino-5-({[2-(trifluoromethyl)pyrimidin-4-yl]oxy}acetyl)pyrimidin-4-yl]piperidine-1-carboxylate] | 19.1
Nc1ncc(C(=O)COc2cccc(C(F)(F)F)n2)c(C2CCN(C(=O)Oc3ccccc3F)CC2)n1 [Compound M14, 2-Fluorophenyl 4-[2-amino-5-({[6-(trifluoromethyl)pyridin-2-yl]oxy}acetyl)pyrimidin-4-yl]piperidine-1-carboxylate] | 485

Same assay, conditions: RORγ SPA binding assay, inhibition of [3H]25-hydroxycholesterol binding; read-out: IC50

Compound | IC50 [nM]
Cc1ncc(C(=O)COc2cccc(Cl)c2)c(C2CCN(C(=O)Cc3c(F)cccc3F)CC2)n1 [Compound M1, 2-(3-Chlorophenoxy)-1-(4-(1-(2-(2,6-difluorophenyl)acetyl)piperidin-4-yl)-2-methylpyrimidin-5-yl)ethanone] | 26
CSc1ncc(C(=O)COc2ccnc(C(F)(F)F)n2)c(C2CCN(C(=O)Nc3c(F)cccc3F)CC2)n1 [Compound M2, N-(2,6-Difluorophenyl)-4-[2-(methylthio)-5-({[2-(trifluoromethyl)pyrimidin-4-yl]oxy}acetyl)pyrimidin-4-yl]piperidine-1-carboxamide] | 18.6
Cc1ncc(C(=O)COc2cccc(C(F)(F)F)n2)c(C2CCN(C(=O)Nc3c(F)cccc3F)CC2)n1 [Compound M4, N-(2,6-Difluorophenyl)-4-[2-methyl-5-({[6-(trifluoromethyl)pyridin-2-yl]oxy}acetyl)pyrimidin-4-yl]piperidine-1-carboxamide] | 6.5
Nc1ncc(C(=O)COc2ccnc(C(F)(F)F)n2)c(C2CCN(C(=O)Cc3c(F)cccc3F)CC2)n1 [Compound M5, 1-(2-Amino-4-{1-[(2,6-difluorophenyl)acetyl]piperidin-4-yl}pyrimidin-5-yl)-2-{[2-(trifluoromethyl)pyrimidin-4-yl]oxy}ethanone] | 16.3
Nc1ncc(C(=O)COc2ccnc(C(F)(F)F)n2)c(C2CCN(C(=O)Nc3c(F)cccc3F)CC2)n1 [Compound M6, 4-[2-Amino-5-({[2-(trifluoromethyl)pyrimidin-4-yl]oxy}acetyl)pyrimidin-4-yl]-N-(2,6-difluorophenyl)piperidine-1-carboxamide] | 12.2
O=C(COc1ccnc(C(F)(F)F)n1)c1cnc(NCCF)nc1C1CCN(C(=O)Nc2c(F)cccc2F)CC1 [Compound M7, N-(2,6-Difluorophenyl)-4-{2-[(2-fluoroethyl)amino]-5-({[2-(trifluoromethyl)pyrimidin-4-yl]oxy}acetyl)pyrimidin-4-yl}piperidine-1-carboxamide] | 159
Cc1nc(C)c(C(=O)COc2ccnc(C(F)(F)F)n2)c(C2CCN(C(=O)Nc3c(F)cccc3F)CC2)n1 [Compound M8, N-(2,6-Difluorophenyl)-4-[2,6-dimethyl-5-({[2-(trifluoromethyl)pyrimidin-4-yl]oxy}acetyl)pyrimidin-4-yl]piperidine-1-carboxamide] | 1.7
Cc1nc(C)c(C(O)COc2ccnc(C(F)(F)F)n2)c(C2CCN(C(=O)Nc3c(F)cccc3F)CC2)n1 (stereo not drawn) [Compound M9, N-(2,6-Difluorophenyl)-4-[5-(1-hydroxy-2-{[2-(trifluoromethyl)pyrimidin-4-yl]oxy}ethyl)-2,6-dimethylpyrimidin-4-yl]piperidine-1-carboxamide] | 2
Cc1nc(N)nc(C2CCN(C(=O)Nc3c(F)cccc3F)CC2)c1C(=O)COc1ccnc(C(F)(F)F)n1 [Compound M10, 4-[2-Amino-6-methyl-5-({[2-(trifluoromethyl)pyrimidin-4-yl]oxy}acetyl)pyrimidin-4-yl]-N-(2,6-difluorophenyl)piperidine-1-carboxamide] | 5.3
Cc1nc(N)nc(C2CCN(C(=O)Nc3c(F)cccc3F)CC2)c1C(=O)COc1cccc(C(F)(F)F)n1 [Compound M11, 4-[2-Amino-6-methyl-5-({[6-(trifluoromethyl)pyridin-2-yl]oxy}acetyl)pyrimidin-4-yl]-N-(2,6-difluorophenyl)piperidine-1-carboxamide] | 2.8
CC(=O)Nc1nc(C)c(C(=O)COc2cccc(C(F)(F)F)n2)c(C2CCN(C(=O)Nc3c(F)cccc3F)CC2)n1 [Compound M12, 4-[2-(Acetylamino)-6-methyl-5-({[6-(trifluoromethyl)pyridin-2-yl]oxy}acetyl)pyrimidin-4-yl]-N-(2,6-difluorophenyl)piperidine-1-carboxamide] | 6.2
Nc1ncc(C(=O)COc2ccnc(C(F)(F)F)n2)c(C2CCN(C(=O)c3c(F)cccc3F)CC2)n1 [Compound M13, 1-(2-Amino-4-{1-[(2,6-difluorophenyl)carbonyl]piperidin-4-yl}pyrimidin-5-yl)-2-{[2-(trifluoromethyl)pyrimidin-4-yl]oxy}ethanone] | 344
Cc1nc(C)c(C(O)COc2ccnc(C(F)(F)F)n2)c(C2CCN(C(=O)Nc3c(F)cccc3F)CC2)n1 (stereo not drawn) [Compound N5, N-(2,6-Difluorophenyl)-4-[5-(1-hydroxy-2-{[2-(trifluoromethyl)pyrimidin-4-yl]oxy}ethyl)-2,6-dimethylpyrimidin-4-yl]piperidine-1-carboxamide] | 8.4
Nc1ncc(C(O)COc2ccnc(C(F)(F)F)n2)c(C2CCN(C(=O)Oc3c(F)cccc3F)CC2)n1 (stereo not drawn) [Compound N13, 2,6-Difluorophenyl 4-[2-amino-5-(1-hydroxy-2-{[2-(trifluoromethyl)pyrimidin-4-yl]oxy}ethyl)pyrimidin-4-yl]piperidine-1-carboxylate] | 6.8

Second part, the compound after the results:

IC50 [nM] | Compound
6.6 | Cc1ncc(C(O)COc2cccc(C(F)(F)F)n2)c(C2CCN(C(=O)Nc3c(F)cccc3F)CC2)n1 (stereo not drawn) [Compound N1, N-(2,6-Difluorophenyl)-4-[5-(1-hydroxy-2-{[6-(trifluoromethyl)pyridin-2-yl]oxy}ethyl)-2-methylpyrimidin-4-yl]piperidine-1-carboxamide]
19.5 | Nc1ncc(C(O)COc2ccnc(C(F)(F)F)n2)c(C2CCN(C(=O)Nc3c(F)cccc3F)CC2)n1 (stereo not drawn) [Compound N2, 4-[2-Amino-5-(1-hydroxy-2-{[2-(trifluoromethyl)pyrimidin-4-yl]oxy}ethyl)pyrimidin-4-yl]-N-(2,6-difluorophenyl)piperidine-1-carboxamide]
2.3 | Nc1ncc(C(O)COc2cccc(C(F)(F)F)n2)c(C2CCN(C(=O)Nc3c(F)cccc3F)CC2)n1 (stereo not drawn) [Compound N3, 4-[2-Amino-5-(1-hydroxy-2-{[6-(trifluoromethyl)pyridin-2-yl]oxy}ethyl)pyrimidin-4-yl]-N-(2,6-difluorophenyl)piperidine-1-carboxamide]
12.1 | COc1ncc(C(O)COc2cccc(C(F)(F)F)n2)c(C2CCN(C(=O)Nc3c(F)cccc3F)CC2)n1 (stereo not drawn) [Compound N4, N-(2,6-Difluorophenyl)-4-[5-(1-hydroxy-2-{[6-(trifluoromethyl)pyridin-2-yl]oxy}ethyl)-2-(methyloxy)pyrimidin-4-yl]piperidine-1-carboxamide]
4 | Cc1nc(C)c(C(O)COc2cccc(C(F)(F)F)n2)c(C2CCN(C(=O)Nc3c(F)cccc3F)CC2)n1 (stereo not drawn) [Compound N6, N-(2,6-Difluorophenyl)-4-[5-(1-hydroxy-2-{[6-(trifluoromethyl)pyridin-2-yl]oxy}ethyl)-2,6-dimethylpyrimidin-4-yl]piperidine-1-carboxamide]
16.9 | Cc1nc(N)nc(C2CCN(C(=O)Nc3c(F)cccc3F)CC2)c1C(O)COc1ccnc(C(F)(F)F)n1 (stereo not drawn) [Compound N7, 4-[2-amino-5-(1-hydroxy-2-{[2-(trifluoromethyl)pyrimidin-4-yl]oxy}ethyl)-6-methylpyrimidin-4-yl]-N-(2,6-difluorophenyl)piperidine-1-carboxamide]
4.8 | COc1nc(C)c(C(O)COc2ccnc(C(F)(F)F)n2)c(C2CCN(C(=O)Nc3c(F)cccc3F)CC2)n1 (stereo not drawn) [Compound N8, N-(2,6-Difluorophenyl)-4-[5-(1-hydroxy-2-{[2-(trifluoromethyl)pyrimidin-4-yl]oxy}ethyl)-6-methyl-2-(methyloxy)pyrimidin-4-yl]piperidine-1-carboxamide]
4.2 | Cc1nc(N)nc(C2CCN(C(=O)Nc3c(F)cccc3F)CC2)c1C(O)COc1cccc(C(F)(F)F)n1 (stereo not drawn) [Compound N9, 4-[2-Amino-5-(1-hydroxy-2-{[6-(trifluoromethyl)pyridin-2-yl]oxy}ethyl)-6-methylpyrimidin-4-yl]-N-(2,6-difluorophenyl)piperidine-1-carboxamide]
20.9 | CC(=O)Nc1nc(C)c(C(O)COc2cccc(C(F)(F)F)n2)c(C2CCN(C(=O)Nc3c(F)cccc3F)CC2)n1 (stereo not drawn) [Compound N10, 4-[2-(Acetylamino)-5-(1-hydroxy-2-{1-[6-(trifluoromethyl)pyridin-2-yl]oxy}ethyl)-6-methylpyrimidin-4-yl]-N-(2,6-difluorophenyl)piperidine-1-carboxamide]
37 | CC(=O)Nc1nc(C)c(C(COc2cccc(C(F)(F)F)n2)OC(C)=O)c(C2CCN(C(=O)Nc3c(F)cccc3F)CC2)n1 (stereo not drawn) [Compound N11, 1-[2-(Acetylamino)-4-(1-{[(2,6-difluorophenyl)amino]carbonyl}piperidin-4-yl)-6-methylpyrimidin-5-yl]-2-{[6-(trifluoromethyl)pyridin-2-yl]oxy}ethyl acetate]
69.5 | Nc1ncc(C(O)CNc2ccnc(C(F)(F)F)n2)c(C2CCN(C(=O)Nc3c(F)cccc3F)CC2)n1 (stereo not drawn) [Compound N12, 4-[2-amino-5-(1-hydroxy-2-{[2-(trifluoromethyl)pyrimidin-4-yl]amino}ethyl)pyrimidin-4-yl]-N-(2,6-difluorophenyl)piperidine-1-carboxamide]
